Measurements reported in patent publication US10683333B2, “Islet amyloid polypeptides with improved solubility” (The Research Foundation for The State University of New York, priority 2014, dated 2020).
Entries after “also recorded” stand apart in the source; their conditions may differ. Where a SMILES comes first, the peptide text is derived from it. Bridges are numbered along the chain shown (N, C = ends).

Columns and labels:
[1] = format: physicochemical; conditions: pH 7.4
Experimental: Dry peptides were dissolved into PBS buffer at pH 7.4 at different initial concentrations, and were incubated for 7 days at 25° C. without stirring. Each sample was then centrifuged using a Beckman Coulter Microfuge 22R Centrifuge at 24° C. for 20 min. The relative centrifugal force used was 1.75×10^4 g. Solubility of each sample was approximated by measuring the absorbance of the corresponding supernatant at 280 nm measured using a Beckman Coulter DU 730 UV/Vis Spectrophotometer. All of the peptides contain a single Tyr, 3 Phe and a disulfide bond, thus their extinction coefficients at 280 nm are very similar. The solubility of PM and the mutant hIAPP polypeptides of the present disclosure was analyzed and compared at pH 7.4. Each peptide was incubated in buffer for 7 days at three different concentrations (100 μM, 500 μM and 1 mM) and the solution was then centrifuged. The apparent solubility was represented by the absorbance of the supernatant of each sample measured at 280 nm. […] Additionally, the supernatant of QM sample has a higher absorbance, 0.162, than that of TM-a and PM, 0.103 and 0.112 respectively (FIG. 4A). […] At 1 mM, the absorbance of the soluble fraction of TM-a, TM-b and QM were 1.23, 1.49, and 1.33 respectively, while that value of PM was only 0.354. In comparison, the absorbance of the supernatant of the 1 mM hIAPP was 0.109 (FIGS. 4A-C).

[2] = Thioflavin-T fluorescence assay of amyloid formation kinetics; format: physicochemical; conditions: 20 mM Tris-HCl pH 7.4, 25° C., without stirring
Experimental: Each peptide was dissolved into 100% hexafluoroisoproponal (HFIP) to make a 1.6 mM stock solution. Stock solutions were filtered using […] Acrodisc syringe filter with a GHP membrane and the required amount of peptide was lyophilized overnight to remove HFIP. Dry peptide was dissolved into the appropriate buffer for the fluorescence assays. Thioflavin-T binding assays, conducted without HFIP or stirring at 25° C., were utilized to monitor amyloid formation kinetics. Fluorescence measurements were performed using a Beckman Coulter DTX 880 plate reader with a multimode detector using an excitation wavelength of 430 nm and an emission wavelength of 485 nm. Samples were prepared by dissolving dry peptide into Tris-HCl buffer and thioflavin-T solution immediately before the measurement. The final concentrations were 16 μM hIAPP or 160 μM of each analog and 32 μM thioflavin-T in 20 mM Tris-HCl (pH 7.4). After creating mutant hIAPP polypeptides of the present disclosure, applicants tested the propensity of the different analogs to form amyloid at pH 7.4 using thioflavin-T fluorescence assays. […] Amyloid formation follows a sigmoidal time course consisting of a lag phase in which few, if any, fibrils are formed, followed by a growth phase and a saturation phase in which amyloid fibrils are in equilibrium with soluble peptide.

[3] = Transmission electron microscopy (TEM) of samples at end of kinetic experiments; format: physicochemical; conditions: aliquots at end of kinetic experiment; 16 μM hIAPP, 160 μM analogs, pH 7.4
Experimental: TEM images were collected at the Life Science Microscopy Center at the State University of New York at Stony Brook. 15 μL aliquots of the samples used for fluorescence assays were removed at the end of each kinetic experiment, blotted on a carbon-coated 200-mesh copper grid for 1 min and then negatively stained with saturated uranyl acetate for 1 min. Samples were further analyzed using TEM and CD.

[4] = Far-UV circular dichroism (CD) of aliquots at end of kinetic experiments; format: physicochemical; conditions: aliquots at end of kinetic experiment, 25° C.
Experimental: Far-UV CD experiments were performed on an Applied Photophysics Chirascan CD spectrophotometer at 25° C. Aliquots from the kinetic experiments were removed at the end of each experiment and the spectra were recorded as the average of three repeats over a range of 190-260 nm, at 1 nm intervals. A 0.1 cm quartz cuvette was used and a background spectrum was subtracted from the data. Samples were further analyzed using TEM and CD.

Row | Structure (SMILES) | solubility at neutral pH compared with PM / wild-type hIAPP [1] | amyloid formation monitored by thioflavin-T fluorescence ([2]; 160 μM peptide, about 140 hrs) | fibril morphology in TEM images [3] | time for amyloid formation to reach the saturation phase ([2]; 16 μM hIAPP) [h] | secondary structure by CD spectrum [4] | absorbance of the supernatant at 280 nm (apparent solubility) [1]
1 | CC(C)C[C@H](NC(=O)[C@H](CCCNC(=N)N)NC(=O)[C@H](CCC(N)=O)NC(=O)[C@@H](NC(=O)[C@H](C)NC(=O)[C@@H]1CSSC[C@H](NC(=O)[C@@H](N)CCCCN)C(=O)N[C@@H](CC(N)=O)C(=O)N[C@@H]([C@@H](C)O)C(=O)N[C@@H](C)C(=O)N[C@@H]([C@@H](C)O)C(=O)N1)[C@@H](C)O)C(=O)N[C@@H](C)C(=O)N[C@@H](CC(N)=O)C(=O)N[C@@H](Cc1ccccc1)C(=O)N[C@@H](CC(C)C)C(=O)N[C@H](C(=O)N[C@@H](CCCNC(=N)N)C(=O)N[C@@H](CO)C(=O)N[C@@H](CO)C(=O)N[C@@H](CC(N)=O)C(=O)N[C@@H](CC(N)=O)C(=O)N[C@@H](Cc1ccccc1)C(=O)NCC(=O)N[C@@H](C)C(=O)N1CCC[C@H]1C(=O)N[C@@H](CC(C)C)C(=O)N[C@@H](CO)C(=O)N[C@@H](CO)C(=O)N[C@H](C(=O)N[C@@H](CC(N)=O)C(=O)N[C@H](C(=O)NCC(=O)N[C@@H](CO)C(=O)N[C@@H](CC(N)=O)C(=O)N[C@H](C(=O)N[C@@H](Cc1ccc(O)cc1)C(N)=O)[C@@H](C)O)C(C)C)[C@@H](C)O)C(C)C [DM] (H-KCNTATCATQRLANFLVRSSNNFGAPLSSTNVGSNTY-NH2; disulfide 2-7; N-terminus assumed) | much better solubility at neutral pH than PM | – | – | – | – | –
2 | CC[C@H](C)[C@H](NC(=O)[C@@H]1CCCN1C(=O)CNC(=O)[C@H](Cc1ccccc1)NC(=O)[C@H](CC(N)=O)NC(=O)[C@H](CC(N)=O)NC(=O)[C@H](CO)NC(=O)[C@H](CO)NC(=O)[C@H](Cc1c[nH]cn1)NC(=O)[C@@H](NC(=O)[C@H](CC(C)C)NC(=O)[C@H](Cc1ccccc1)NC(=O)[C@H](CC(N)=O)NC(=O)[C@H](C)NC(=O)[C@H](CC(C)C)NC(=O)[C@H](CCCNC(=N)N)NC(=O)[C@H](CCC(N)=O)NC(=O)[C@@H](NC(=O)[C@H](C)NC(=O)[C@@H]1CSSC[C@H](NC(=O)[C@@H](N)CCCCN)C(=O)N[C@@H](CC(N)=O)C(=O)N[C@@H]([C@@H](C)O)C(=O)N[C@@H](C)C(=O)N[C@@H]([C@@H](C)O)C(=O)N1)[C@@H](C)O)C(C)C)C(=O)N[C@@H](CC(C)C)C(=O)N1CCC[C@H]1C(=O)N1CCC[C@H]1C(=O)N[C@H](C(=O)N[C@@H](CC(N)=O)C(=O)N[C@H](C(=O)NCC(=O)N[C@@H](CO)C(=O)N[C@@H](CC(N)=O)C(=O)N[C@H](C(=O)N[C@@H](Cc1ccc(O)cc1)C(N)=O)[C@@H](C)O)C(C)C)[C@@H](C)O [PM] | – | flat fluorescence curves; also recorded: do not form amyloid | no fibrils were found | – | – | –
3 | CC[C@H](C)[C@H](NC(=O)[C@H](C)NC(=O)CNC(=O)[C@H](Cc1ccccc1)NC(=O)[C@H](CC(N)=O)NC(=O)[C@H](CC(N)=O)NC(=O)[C@H](CO)NC(=O)[C@H](CO)NC(=O)[C@H](Cc1c[nH]cn1)NC(=O)[C@@H](NC(=O)[C@H](CC(C)C)NC(=O)[C@H](Cc1ccccc1)NC(=O)[C@H](CC(N)=O)NC(=O)[C@H](C)NC(=O)[C@H](CC(C)C)NC(=O)[C@H](CCCNC(=N)N)NC(=O)[C@H](CCC(N)=O)NC(=O)[C@@H](NC(=O)[C@H](C)NC(=O)[C@@H]1CSSC[C@H](NC(=O)[C@@H](N)CCCCN)C(=O)N[C@@H](CC(N)=O)C(=O)N[C@@H]([C@@H](C)O)C(=O)N[C@@H](C)C(=O)N[C@@H]([C@@H](C)O)C(=O)N1)[C@@H](C)O)C(C)C)C(=O)N[C@@H](CC(C)C)C(=O)N[C@@H](CO)C(=O)N[C@@H](CO)C(=O)N[C@H](C(=O)N[C@@H](CC(N)=O)C(=O)N[C@H](C(=O)NCC(=O)N[C@@H](CO)C(=O)N[C@@H](CC(N)=O)C(=O)N[C@H](C(=O)N[C@@H](Cc1ccc(O)cc1)C(N)=O)[C@@H](C)O)C(C)C)[C@@H](C)O [hIAPP] | – | – | typical amyloid fibril morphology | ≤ 40 | β-sheet structure | 0.109
